According to publication PMC10767194 (The Journal of Biological Chemistry, 2023):
Values joined by “and” are separate entries in the source; they are usually repeats but may differ in a detail not shown here. Identical values can stand only once. “Also recorded” adds a separate entry of the source.

B1: cyclin K cyclin box domains (residues 1–267) (domain or fragment, human, UniProt O75909 1-267, looked up)
chain: MKENKENSSPSVTSANLDHTKPCWYWDKKDLAHTPSQLEGLDPATEARYRREGARFIFDVGTRLGLHYDTLATGIIYFHRFYMFHSFKQFPRYVTGACCLFLAGKVEETPKKCKDIIKTARSLLNDVQFGQFGDDPKEEVMVLERILLQTIKFDLQVEHPYQFLLKYAKQLKGDKNKIQKLVQMAWTFVNDSLCTTLSLQWEPEIIAVAVMYLAGRLCKFEIQEWTSKPMYRRWWEQFVQDVPVDVLEDICHQILDLYSQGKQQMPH
notes: cyclin box domains of human cyclin K, residues 1–267, UniProt O75909; synthetic codon-optimised gene; The final model of 8P81 holds residues 20 to 260 of CycK; also called CycK; not shown: GST, N-terminal, cleaved

Columns and labels:
Cdk12/CycK [1] = target: T1, Cdk12/CycK (Homo sapiens, UniProt Q9NYV4); assay: radioactive in vitro kinase assay, Cdk12/CycK; assay type: biochemical; details: 20 min; for inhibitory effect on Cdk12/CycK activity, in words: 0, 0.1, 1, 10, 100 μM compound, 0.2 μM Cdk12, 0.2 mM ATP, His-c-Myc; for IC50: 0.2 μM kinase, 0.2 mM ATP, 50 μM His-c-Myc, sigmoidal fit
T1 construct: GST (TEV site) (N, cleaved yes); made in house; host or cells: Sf9 insect cells, co-expressed with S. cerevisiae CAK1
T1 sequence (Q9NYV4 714-1063, one chain of several): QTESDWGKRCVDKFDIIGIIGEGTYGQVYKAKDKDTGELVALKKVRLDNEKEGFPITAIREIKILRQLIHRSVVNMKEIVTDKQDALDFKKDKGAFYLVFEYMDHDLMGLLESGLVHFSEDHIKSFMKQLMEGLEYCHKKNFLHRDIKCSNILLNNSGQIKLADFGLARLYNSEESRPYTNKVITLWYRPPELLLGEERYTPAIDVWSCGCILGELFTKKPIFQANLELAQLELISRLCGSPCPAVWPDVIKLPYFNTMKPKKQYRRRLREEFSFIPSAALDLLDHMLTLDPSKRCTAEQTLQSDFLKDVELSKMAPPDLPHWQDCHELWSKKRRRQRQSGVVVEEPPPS
Description: To a concentration of 0.2 μM kinase and 0.2 mM ATP, a compound concentration ranging from 0.1 nM to 1 mM was applied. Kinase reactions were started by the addition of 100 μM CTD peptide containing three hepta-repeats continuously prephosphorylated at position S7 (pS7-CTD[3]) and terminated after 60 min incubation time. In vitro IC50-values were determined by applying a sigmoidal fit to dose-response measurements (Fig. 1A).
Cdk12 kinase (0.2 μM) in the presence of 0.2 mM ATP were supplemented with respective compounds at concentrations of 0, 0.1, 1, 10, and 100 μM for 5 min. Upon addition of 50 μM His-c-Myc substrate the kinase assay reaction was conducted for 20 min.
Radioactive kinase activity assays were performed in a total volume of 15 μl per sample in kinase assay buffer (50 mM Hepes/pH 7.6, 34 mM KCl, 7 mM MgCl2, 5 mM β-glycerol phosphate, and 2.5 mM dithioerythritol). Preincubation of 0.2 μM or 0.02 μM recombinant protein kinase with indicated concentrations of respective inhibitor and 0.2 to 2 mM ATP containing 0.45 mCi [^32P]-γ-ATP/ml (PerkinElmer) was carried out for 5 min. Kinase reactions were started by addition of substrate protein (10 μM GST-Rb1 for Cdk4/CycD3, 10 μM GST-CTD[52] for Cdk7/CycH/MAT1, 50 μM His-c-Myc for all others) and incubated for 20 min at 30 °C in a shaking incubator at 300 rpm. For pS7-CTD[3] peptide, the substrate concentration was increased to 100 μM and assays were performed for 60 min. Reactions were terminated by the addition of EDTA to a final concentration of 50 mM. Reaction samples were separately spotted onto Amersham Protran nitrocellulose membranes (GE HealthCare) and subsequently washed three times for 5 min in PBS. Samples were transferred to 4 ml liquid scintillation vials and 2 ml liquid scintillator (Ultima Gold) were added. Radioactive counts were determined in a Beckman Liquid Scintillation Counter (Beckman Coulter) for 1 min. […] For analysis of dose response measurements and IC50 value determination, data of inhibitor-supplemented samples were normalized to DMSO solvent controls and their activity plotted against the inhibitor concentration. IC50 values were extracted from triplicate measurements by sigmoidal curve fitting using DataGraph (v. 5.0; https://www.visualdatatools.com/DataGraph/) or were determined by applying the Morrison quadratic equation for tight binding inhibitors using GraphPad Prism 10 (https://www.graphpad.com/) ([40]).

Cdk9/CycT1 = target: T2, Cdk9/CycT1 (Homo sapiens, UniProt P50750); assay: SPR single-cycle kinetics, Cdk9/CycT1; details: 1:1 binding model
T2 construct: Full-length, human, WT Cdk9 (residues 1–372, UniProt P50750); made in house; host or cells: Cdk9: Sf9 insect cells; CycT1: E. coli
T2 sequence (P50750 whole entry, the tested form may be a part): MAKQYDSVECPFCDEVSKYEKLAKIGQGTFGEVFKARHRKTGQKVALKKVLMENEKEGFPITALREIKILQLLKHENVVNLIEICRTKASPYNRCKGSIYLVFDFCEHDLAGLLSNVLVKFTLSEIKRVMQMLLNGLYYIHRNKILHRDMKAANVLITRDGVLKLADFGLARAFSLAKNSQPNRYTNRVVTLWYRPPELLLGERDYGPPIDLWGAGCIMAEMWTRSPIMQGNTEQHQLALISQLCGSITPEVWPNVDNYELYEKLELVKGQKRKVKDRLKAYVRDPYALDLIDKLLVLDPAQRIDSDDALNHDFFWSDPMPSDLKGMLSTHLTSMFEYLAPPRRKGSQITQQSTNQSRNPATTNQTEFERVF
T2 sequence (O60563 1-272 partner limits assumed): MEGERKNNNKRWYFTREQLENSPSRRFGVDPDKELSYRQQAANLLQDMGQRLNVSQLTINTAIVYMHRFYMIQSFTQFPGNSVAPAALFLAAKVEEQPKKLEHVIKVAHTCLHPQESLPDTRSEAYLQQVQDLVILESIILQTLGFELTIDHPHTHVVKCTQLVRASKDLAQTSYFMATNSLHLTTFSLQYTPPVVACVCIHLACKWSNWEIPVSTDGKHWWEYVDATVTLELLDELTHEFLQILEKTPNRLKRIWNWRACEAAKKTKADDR
Description: The protein kinases were immobilized on a CM5 chip using the amine-coupling method. […] The fully active and T-loop phosphorylated kinase preparations of Cdk12∗/CycK and Cdk13∗/CycK were obtained through coexpression with Cdk-activating kinase 1 (CAK1) from Saccharomyces cerevisiae. […] For comparison, we measured the affinity of NVP-2 for active kinases Cdk12∗/CycK and its proposed target Cdk9/CycT1 by SPR.
SPR experiments were conducted on a Biacore 8K (Cytiva) device. The system was equilibrated in running buffer (20 mM Tris pH 8, 150 mM NaCl, 1 mM tris(2-carboxyethyl)phosphine, 0.1 mM MgCl2, 0.05% Tween20, and 2% DMSO) at 25 °C. Flow cell 1 and 2 surfaces of a CM5 sensor chip (Cytiva) were conditioned with 50 mM NaOH at a flow rate of 30 μl/min for 15 s and subsequently activated with a 1:1 mix of 0.1 M N-hydroxysuccinimide (NHS) and 0.1 M 3-(N,N-dimethylamino) propyl-N-ethyl-carbodiimide (EDC) at a flow rate of 10 μl/min for 7 min. The flow system was washed with 1 M enthanolamine (pH 8). WT and mutant kinases Cdk12/CycK, Cdk13/CycK and Cdk9/CycT1 were diluted in Mes (pH 6.5) to a final concentration of 2 μM. Immobilization of kinases was performed in running buffer without DMSO using the amine coupling method on flow cell 2 surface for 160 s at a flow rate of 10 μl/min. Free binding sites were blocked with 1 M ethanolamine pH 8.0 (10 μl/min) for 7 min. […]

Cdk12/CycK [2] = target: T1, Cdk12/CycK; assay: SPR single-cycle kinetics, active Cdk12*/CycK; details: T-loop phosphorylated active kinase (CAK1 coexpressed), 1:1 binding model
[3] = target: T3, Cdk12 kinase domain (residues 714–1063), T-loop phosphorylated, coexpressed with CAK1 (human, UniProt Q9NYV4 714-1063, phosphothreonine at 893 (pT893)); assay: crystal structure; Cdk12/CycK at 12 mg/ml with 5-fold excess of SR-4835; hanging drop vapor diffusion at 15 °C; 0.1 M Mops pH 6.5, 30% PEG mix, 0.1 M NDSB; 2.68 Å; details: both partners purified
T3 construct: kinase domain of human Cdk12, residues 714–1063, UniProt Q9NYV4; synthetic codon-optimised gene; The final model of 8P81 holds residues 716 to 1032 of Cdk12; also called cyclin-dependent kinase 12; not shown: GST, N-terminal, cleaved
T3 sequence (Q9NYV4 714-1063): as the sequence (Q9NYV4 714-1063, one chain of several) above

Molecule	inhibitory effect on Cdk12/CycK activity, in words (Cdk12/CycK [1])	IC50 (Cdk12/CycK [1])	also measured
CN(C)C(=O)c1cc2cnc(Nc3ccc(N4CCNCC4)cn3)nc2n1C1CCCC1 [ribociclib]	no inhibitory effect	–	–
CCc1cnn2c(NCc3ccc[n+]([O-])c3)cc(N3CCCC[C@H]3CCO)nc12 [dinaciclib]	highest potency	–	–
CN(C)C/C=C/C(=O)Nc1ccc(C(=O)Nc2cccc(Nc3ncc(Cl)c(-c4c[nH]c5ccccc45)n3)c2)cc1 [THZ1]	modest effects	87.2 nM	–
CN1CCN(c2ccc(Nc3ncc4cc5n(c4n3)C3(CCCCC3)CNC5=O)nc2)CC1 [trilaciclib]	modest effects; also recorded: only weak efficacy	1340 nM	–
CC(=O)c1c(C)c2cnc(Nc3ccc(N4CCNCC4)cn3)nc2n(C2CCCC2)c1=O [palbociclib]	no inhibitory effect	–	–
CN1CC[C@H](c2c(O)cc(O)c3c(=O)cc(-c4ccccc4Cl)oc23)[C@H](O)C1 [flavopiridol]	modest effects	–	–
COC[C@@H](C)NC1CCC(Nc2cc(-c3cccc(NCC4(C#N)CCOCC4)n3)c(Cl)cn2)CC1 (some centres unmarked) [NVP-2]	highest potency	40.9 nM	Kd (Cdk9/CycT1): 0.1 nM; Kd (Cdk12/CycK [2]): 2.9 nM and 2.88 nM
CCN1CCN(Cc2ccc(Nc3ncc(F)c(-c4cc(F)c5nc(C)n(C(C)C)c5c4)n3)nc2)CC1 [abemaciclib]	modest effects; also recorded: only weak efficacy	1300 nM	–
CN(C)C/C=C/C(=O)Nc1ccc(C(=O)N2CCC[C@@H](Nc3ncc(Cl)c(-c4c[nH]c5ccccc45)n3)C2)cc1 [THZ531]	modest effects	174 nM	–
B1	–	–	binding result [3]: binds
